Data on eight molecules can be found in patent publication US20120178738A1, “DIBENZO [B,F] [1,4]OXAZAPINE COMPOUNDS” (ARYX THERAPEUTICS, INC., priority 2007, published 2012).

Series [1] deals with T1, 5-HT2A receptor (Rattus norvegicus, UniProt P14842).
T1 construct: Eight strips of tissue (0.5 cm long) were cut. and were mounted in 10 ml organ baths; tissue Charles River Laboratories; host or cells: rat aorta strips, endothelium removed
Kind of series: cell-based. As to conditions: read-out: 5HT2A (pKb) (converted). Put shortly:
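Endothelium-denuded aortic strips from male Sprague Dawley rats held at 37° C in carbogen-aerated Krebs, pH 7.4, under 2 g resting tension. Contraction recorded as tension change, expressed as % of maximal 5-HT response; agonist EC50 from Parker–Waud fit, antagonist pKB/pA2 from concentration-ratios.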

Series [2] has as its target T2, human M3 receptors (Homo sapiens, UniProt P20309).
T2 construct: expressed in transfected cells; host or cells: Chinese hamster ovary cells (membranes)
Kind of series: hM3 receptor radioligand binding ([3H]NMS). As to conditions: pKi reported on a scale of 1 through 5; read-out: M3 (pKi) (converted). The method in brief:
(§1)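 Test compounds compete with a single concentration of radioligand for receptor sites on tissue or membrane fractions under equilibrium incubation. Filtration separates displaced ligand, and nonspecific binding is set with a known receptor blocker.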

Series [3] deals with T3, human D2s dopamine receptors (Homo sapiens, UniProt P14416).
T3 construct: expressed in transfected cells; host or cells: Chinese hamster ovary cells (membranes)
T3 sequence (P14416 1-414 isoform P14416-2): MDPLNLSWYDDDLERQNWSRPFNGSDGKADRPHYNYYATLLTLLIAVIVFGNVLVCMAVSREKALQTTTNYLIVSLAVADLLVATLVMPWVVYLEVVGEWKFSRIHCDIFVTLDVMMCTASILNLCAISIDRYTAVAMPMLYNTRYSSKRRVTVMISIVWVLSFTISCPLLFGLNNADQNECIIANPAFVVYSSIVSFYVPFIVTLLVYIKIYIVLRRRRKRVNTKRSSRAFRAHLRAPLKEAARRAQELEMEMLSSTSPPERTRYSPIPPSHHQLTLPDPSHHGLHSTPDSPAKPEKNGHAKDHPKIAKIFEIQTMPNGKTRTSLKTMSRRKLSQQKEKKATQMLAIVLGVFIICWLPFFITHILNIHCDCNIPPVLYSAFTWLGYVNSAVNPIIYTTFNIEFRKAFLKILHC
Kind of series: hD2S receptor radioligand binding ([3H]spiperone). As to conditions: pKi reported on a scale of 1 through 5. Put shortly: as §1

Series [4] deals with T4, human H1 receptors (Homo sapiens, UniProt P35367).
T4 construct: expressed in transfected cells; host or cells: Chinese hamster ovary cells (membranes)
T4 sequence (P35367 whole entry): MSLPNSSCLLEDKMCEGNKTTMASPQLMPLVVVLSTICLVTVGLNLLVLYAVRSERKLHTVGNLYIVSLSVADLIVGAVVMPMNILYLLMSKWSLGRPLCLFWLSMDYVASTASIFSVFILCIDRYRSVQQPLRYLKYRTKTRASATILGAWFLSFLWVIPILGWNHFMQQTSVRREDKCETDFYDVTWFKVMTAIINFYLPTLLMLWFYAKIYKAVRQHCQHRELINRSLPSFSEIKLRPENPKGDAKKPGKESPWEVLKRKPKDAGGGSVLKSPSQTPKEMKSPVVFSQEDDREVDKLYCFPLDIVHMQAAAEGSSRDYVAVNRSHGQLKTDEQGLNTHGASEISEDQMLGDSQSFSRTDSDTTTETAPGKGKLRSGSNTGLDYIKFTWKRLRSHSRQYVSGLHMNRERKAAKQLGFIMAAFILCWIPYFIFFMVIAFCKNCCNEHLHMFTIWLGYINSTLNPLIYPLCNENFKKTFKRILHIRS
Kind of series: hH1 receptor radioligand binding ([3H]Pyrilamine). As to conditions: pKi reported on a scale of 1 through 5. The method in brief: as §1

Series [5] addresses T5, human 5HT7 receptors (Homo sapiens, UniProt P34969).
T5 construct: expressed in transfected cells; host or cells: Chinese hamster ovary cells (membranes)
Kind of series: h5-HT7 receptor radioligand binding ([3H]5-CT). Particulars: pKi reported on a scale of 1 through 5; read-out: 5HT7 (pKi) (converted). Put shortly: as §1

Series [6] has as its target T6, human 5HT1A receptors (Homo sapiens, UniProt P08908).
T6 construct: expressed in transfected cells; host or cells: Chinese hamster ovary cells (membranes)
T6 sequence (P08908 1-422): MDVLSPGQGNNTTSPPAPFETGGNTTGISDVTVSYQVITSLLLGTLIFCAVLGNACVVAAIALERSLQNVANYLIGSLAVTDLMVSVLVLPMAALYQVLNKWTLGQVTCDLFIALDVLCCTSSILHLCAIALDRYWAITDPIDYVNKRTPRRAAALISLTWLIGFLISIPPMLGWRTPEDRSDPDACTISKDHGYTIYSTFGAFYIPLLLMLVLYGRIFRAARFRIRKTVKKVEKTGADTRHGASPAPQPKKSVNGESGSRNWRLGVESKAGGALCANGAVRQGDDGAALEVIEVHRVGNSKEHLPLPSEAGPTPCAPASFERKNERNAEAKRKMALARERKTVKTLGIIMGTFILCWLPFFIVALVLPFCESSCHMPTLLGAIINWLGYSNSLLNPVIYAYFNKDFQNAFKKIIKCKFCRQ
The series is described as follows: h5-HT1A receptor radioligand binding ([3H]8OH-DPAT). Particulars: pKi reported on a scale of 1 through 5. The method in brief: as §1

In series [7] the target is T7, human 5HT2C receptors (Homo sapiens, UniProt P28335).
T7 construct: expressed in transfected cells; host or cells: human embryo kidney cells (membranes)
T7 sequence (P28335 33-458): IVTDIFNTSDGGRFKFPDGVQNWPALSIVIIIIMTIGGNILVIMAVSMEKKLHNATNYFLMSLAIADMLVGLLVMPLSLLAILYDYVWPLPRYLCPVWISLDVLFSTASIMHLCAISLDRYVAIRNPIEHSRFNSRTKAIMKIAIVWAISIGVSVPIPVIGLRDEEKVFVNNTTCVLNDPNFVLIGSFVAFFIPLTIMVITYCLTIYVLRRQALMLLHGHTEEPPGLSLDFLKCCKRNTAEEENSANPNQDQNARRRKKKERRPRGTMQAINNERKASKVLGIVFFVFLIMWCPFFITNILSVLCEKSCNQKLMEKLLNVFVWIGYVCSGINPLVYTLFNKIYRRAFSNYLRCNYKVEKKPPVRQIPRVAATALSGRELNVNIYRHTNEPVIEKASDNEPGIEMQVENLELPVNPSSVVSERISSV
The series is described as follows: h5-HT2C receptor radioligand binding ([3H]Mesulergine). Particulars: pKi reported on a scale of 1 through 5. The method in brief: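 Competition binding: membranes incubated to equilibrium with a single concentration of [3H]mesulergine and a range of unlabeled test compound concentrations, then filtered. Nonspecific binding defined with a known receptor blocker; displacement concentration-response, corrected for nonspecific binding, gave the affinity measure.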

For series [8], the target named is T8, human M1 receptors (Homo sapiens, UniProt P11229).
T8 construct: expressed in transfected cells; host or cells: Chinese hamster ovary cells (membranes)
T8 sequence (P11229 1-460): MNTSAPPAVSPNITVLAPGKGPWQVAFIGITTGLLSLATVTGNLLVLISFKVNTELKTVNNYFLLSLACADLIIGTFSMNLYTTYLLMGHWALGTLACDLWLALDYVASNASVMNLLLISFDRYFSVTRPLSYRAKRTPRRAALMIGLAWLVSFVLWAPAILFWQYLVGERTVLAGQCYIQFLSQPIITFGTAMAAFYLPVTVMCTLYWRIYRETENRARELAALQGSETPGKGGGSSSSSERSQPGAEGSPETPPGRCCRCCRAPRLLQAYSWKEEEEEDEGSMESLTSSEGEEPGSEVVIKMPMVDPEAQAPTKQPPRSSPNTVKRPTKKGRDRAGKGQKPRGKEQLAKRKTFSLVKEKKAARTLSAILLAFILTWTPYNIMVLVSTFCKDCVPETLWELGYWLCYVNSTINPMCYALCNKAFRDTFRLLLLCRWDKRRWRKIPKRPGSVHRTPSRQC
Kind of series: hM1 receptor radioligand binding ([3H]NMS). Particulars: pKi reported on a scale of 1 through 5. The method in brief:
as §1

The target in series [9] is T9, human D2L dopamine receptors (Homo sapiens, UniProt P14416).
T9 construct: expressed in transfected cells; host or cells: insect Sf9 cells (membranes)
T9 sequence (P14416 whole entry): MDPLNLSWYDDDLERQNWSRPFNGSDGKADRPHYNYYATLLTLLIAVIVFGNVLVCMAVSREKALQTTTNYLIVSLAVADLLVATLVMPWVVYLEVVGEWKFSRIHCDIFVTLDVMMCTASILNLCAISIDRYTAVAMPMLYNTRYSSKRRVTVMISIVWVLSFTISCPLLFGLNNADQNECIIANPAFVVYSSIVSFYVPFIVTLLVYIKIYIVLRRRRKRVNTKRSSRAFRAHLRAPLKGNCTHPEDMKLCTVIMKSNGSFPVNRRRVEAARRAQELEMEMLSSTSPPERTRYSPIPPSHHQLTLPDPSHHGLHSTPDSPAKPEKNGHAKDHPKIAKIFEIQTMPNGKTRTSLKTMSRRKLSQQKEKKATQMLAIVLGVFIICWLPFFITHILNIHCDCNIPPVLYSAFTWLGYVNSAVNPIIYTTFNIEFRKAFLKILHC
The series is described as follows: hD2L receptor radioligand binding ([3H]spiperone). Particulars: pKi reported on a scale of 1 through 5; read-out: D2L (pKi) (converted). Put shortly: as §1

For series [10], the system named is locomotor activity in rats. Kind of series: Spontaneous locomotor activity (open field). It is filed as in vivo. Particulars: clozapine comparator, dose not given. As to the method:
One of the common side effects of many antipsychotic drugs is sedation. It has been shown that agents that have sedative actions in man have the same effect in animals. The purpose of these studies was to evaluate the effect of test compounds on the locomotor activity in rats, which is used to assess the sedative properties of antipsychotic compounds.
The animals (male Sprague Dawley rats, about 300-450 g; Charles River) were assessed for ambulation for 30 minutes before and for 30 min after vehicle or test compounds. […] Locomotor activity is quantified by the number of photobeams crossed by the animal over several 3×10 min intervals.

The test system of series [11] is catalepsy in mice. Kind of series: Catalepsy mouse model. It is filed as in vivo. As to conditions: highest dose 30 mg/kg. As for the experimental part: A catalepsy mouse model was used to investigate a potential side effect of antipsychotic agents.
The catalepsy methodology used herein has been adapted from Tada, M. et al. ((2004). Psychopharmacol., 176, 94-100) as well as Wang et al. ((2000). J. Neurosci., 20, 8305-8314).
The animals (Swiss Webster, female, about 20 g; Charles River) were administered compounds of the invention (1 μg/kg-30 mg/kg ip). Twenty seven minutes after test compound injection, the mice's forepaws were placed on a horizontal steel bar (diameter 0.2 cm), elevated 3-5 cm above the tabletop and the time taken for the animals to remove both paws was recorded for up to 2 min.

T5 sequence (P34969 whole entry): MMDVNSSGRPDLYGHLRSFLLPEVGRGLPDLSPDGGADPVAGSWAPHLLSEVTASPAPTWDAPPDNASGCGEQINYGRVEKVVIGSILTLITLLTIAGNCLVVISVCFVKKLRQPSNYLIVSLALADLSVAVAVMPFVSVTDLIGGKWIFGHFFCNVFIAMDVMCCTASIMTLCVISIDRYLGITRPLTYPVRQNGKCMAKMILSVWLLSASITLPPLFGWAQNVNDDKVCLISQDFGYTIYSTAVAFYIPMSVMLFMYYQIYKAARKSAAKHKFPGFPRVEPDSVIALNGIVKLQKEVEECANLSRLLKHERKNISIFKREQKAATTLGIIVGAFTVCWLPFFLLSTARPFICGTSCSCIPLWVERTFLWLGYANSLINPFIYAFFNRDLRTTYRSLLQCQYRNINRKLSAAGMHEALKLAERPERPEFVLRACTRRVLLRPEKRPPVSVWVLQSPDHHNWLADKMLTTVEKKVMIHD
T2 sequence (P20309 whole entry): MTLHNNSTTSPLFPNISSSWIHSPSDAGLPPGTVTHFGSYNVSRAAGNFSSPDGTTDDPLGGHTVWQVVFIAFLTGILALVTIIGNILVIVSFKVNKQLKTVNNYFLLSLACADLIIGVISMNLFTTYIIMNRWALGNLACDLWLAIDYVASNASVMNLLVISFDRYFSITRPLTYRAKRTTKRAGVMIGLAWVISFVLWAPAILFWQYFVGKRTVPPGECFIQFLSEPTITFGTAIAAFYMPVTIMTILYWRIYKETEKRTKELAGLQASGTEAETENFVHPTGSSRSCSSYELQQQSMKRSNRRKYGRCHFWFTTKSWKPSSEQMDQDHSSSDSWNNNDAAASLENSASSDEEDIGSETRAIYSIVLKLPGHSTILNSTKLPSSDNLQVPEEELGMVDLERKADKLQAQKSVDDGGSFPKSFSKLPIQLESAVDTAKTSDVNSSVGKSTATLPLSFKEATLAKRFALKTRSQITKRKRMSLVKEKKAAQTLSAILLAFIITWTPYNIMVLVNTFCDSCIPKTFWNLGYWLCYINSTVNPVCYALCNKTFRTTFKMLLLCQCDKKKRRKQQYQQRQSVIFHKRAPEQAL
T1 sequence (P14842 whole entry): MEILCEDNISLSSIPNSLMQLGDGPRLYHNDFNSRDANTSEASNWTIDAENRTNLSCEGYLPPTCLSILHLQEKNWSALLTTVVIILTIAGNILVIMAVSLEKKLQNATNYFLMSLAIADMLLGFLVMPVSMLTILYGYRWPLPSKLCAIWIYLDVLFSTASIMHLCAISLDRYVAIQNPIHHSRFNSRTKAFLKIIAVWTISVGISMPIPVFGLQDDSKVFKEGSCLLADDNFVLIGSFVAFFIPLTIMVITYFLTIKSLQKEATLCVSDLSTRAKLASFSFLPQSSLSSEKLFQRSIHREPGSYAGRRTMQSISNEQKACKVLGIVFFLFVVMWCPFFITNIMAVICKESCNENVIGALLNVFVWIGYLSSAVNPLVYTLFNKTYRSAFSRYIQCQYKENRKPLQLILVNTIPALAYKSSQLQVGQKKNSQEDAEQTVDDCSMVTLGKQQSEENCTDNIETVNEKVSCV

Consider `COc1ccc(NC(=O)C[C@H]2CN(C3=Nc4cc(Cl)ccc4Oc4ccccc43)CCN2)cn1` [FP, (S,E)-2-(4-(8-chlorodibenzo[b,f][1,4]oxazepin-11-yl)piperazin-2-yl)-N-(6-methoxypyridin-3-yl)acetamide], for which the Kb in series [1] is 10 to 30.9 nM. For the same molecule, the Ki in series [2] is over 10000 nM; in series [3] it was 631 to 2450 nM; in series [4] it was 10 to 97.7 nM; in series [5] it was 1580 to 3890 nM; in series [6], at most 9.77 nM; in series [7] it was 10 to 97.7 nM. Besides, the Ki is 5010 to 9770 nM in [8] and 631 to 2450 nM in series [9].
Turning to `O=C(C[C@H]1CN(C2=Nc3cc(Cl)ccc3Oc3ccccc32)CCN1)NCC(F)F` [FQ, (S,E)-2-(4-(8-chlorodibenzo[b,f][1,4]oxazepin-11-yl)piperazin-2-yl)-N-(2,2-difluoroethyl)acetamide], the Kb in [1] is 10 to 30.9 nM. Besides, the Ki was over 10000 nM in series [2]; 631 to 2450 nM in series [3]; 10 to 97.7 nM in series [4]; 631 to 1550 nM in series [5]; 10 to 97.7 nM in series [6]; 10 to 97.7 nM in [7]. In addition, the Ki is 5010 to 9770 nM in [8] and 631 to 2450 nM in series [9].
As for `O=C(C[C@H]1CN(C2=Nc3cc(Cl)ccc3Oc3ccccc32)CCN1)NC[C@@H]1CCCO1` [FR, 2-((S)-4-((E)-8-chlorodibenzo[b,f][1,4]oxazepin-11-yl)piperazin-2-yl)-N-(((S)-tetrahydrofuran-2-yl)methyl)acetamide], the Kb in series [1] was 3.16 to 9.77 nM. For the same molecule, the Ki in [2] is over 10000 nM; in series [3], 158 to 617 nM; in series [4], 10 to 97.7 nM; in series [5], 631 to 1550 nM; in [6] it was 10 to 97.7 nM; in [7], 10 to 97.7 nM. In addition, the Ki in [8] is over 10000 nM; in [9] it was 158 to 617 nM.
Consider `COCCCNC(=O)C[C@H]1CN(C2=Nc3cc(Cl)ccc3Oc3ccccc32)CCN1` [GD, (S,E)-2-(4-(8-chlorodibenzo[b,f][1,4]oxazepin-11-yl)piperazin-2-yl)-N-(3-methoxypropyl)acetamide], for which the Kb in series [1] was 10 to 30.9 nM. In addition, the Ki in series [2] was over 10000 nM; in [3], 631 to 2450 nM; in [4], 10 to 97.7 nM; in [5] it was 631 to 1550 nM; in series [6], 10 to 97.7 nM; in [7], 10 to 97.7 nM. Moreover, the Ki is over 10000 nM in [8] and 631 to 2450 nM in series [9].
Consider `O=C(C[C@H]1CN(C2=Nc3cc(Cl)ccc3Oc3ccccc32)CCN1)NCC(O)C(F)(F)F` (stereo partly drawn) [GF, 2-((S)-4-((E)-8-chlorodibenzo[b,f][1,4]oxazepin-11-yl)piperazin-2-yl)-N-(3,3,3-trifluoro-2-hydroxypropyl)acetamide], for which the Kb in [1] was 10 to 30.9 nM. The Ki in [2] is over 10000 nM; in [3] it was 631 to 2450 nM; in series [4], 10 to 97.7 nM; in series [5] it was 631 to 1550 nM; in series [6], 100 to 977 nM; in [7] it was 10 to 97.7 nM. Moreover, the Ki in [8] is over 10000 nM; in [9], 2510 to 9770 nM.
In the case of `O=C(C[C@H]1CN(C2=Nc3cc(Cl)ccc3Oc3ccccc32)CCN1)N1CCOCC1` [GG, (S,E)-2-(4-(8-chlorodibenzo[b,f][1,4]oxazepin-11-yl)piperazin-2-yl)-1-morpholinoethanone], the Kb in series [1] is 3.16 to 9.77 nM. For the same molecule, the Ki in series [2] is 7940 to 9770 nM; in [3] it was 2510 to 9770 nM; in series [4], at most 9.77 nM; in series [5] it was 631 to 1550 nM; in [6], 10 to 97.7 nM; in series [7] it was 10 to 97.7 nM. Further, the values for the Ki in [8] and in [9] were 1260 to 2450 nM and 2510 to 9770 nM, respectively.
In the case of `O=C(C[C@H]1CN(C2=Nc3cc(Cl)ccc3Oc3ccccc32)CCN1)N1CCC[C@H]1C(F)(F)F` [GH, 2-((S)-4-((E)-8-chlorodibenzo[b,f][1,4]oxazepin-11-yl)piperazin-2-yl)-1-((S)-2-(trifluoromethyl)pyrrolidin-1-yl)ethanone], in [1], the Kb is 31.6 to 97.7 nM. Further, the Ki in [2] is 7940 to 9770 nM; in [3] it was 2510 to 9770 nM; in [4], 10 to 97.7 nM; in [5] it was 1580 to 3890 nM; in series [6], 100 to 977 nM; in series [7], 100 to 977 nM. For the same molecule, the Ki was at most 1230 nM in series [8] and 631 to 2450 nM in series [9].
With `CN1CCN(C2=Nc3cc(Cl)ccc3Nc3ccccc32)CC1` [clozapine, reference compound], the “locomotor activity in rat (open field)” value in [10] was “trend toward sedation”. The catalepsy entry in series [11] is “induced catalepsy”.
